From patent US7041685B2, “Substituted 3-aryl-5-aryl-[1,2,4]-oxadiazoles and analogs as activators of caspases and inducers of apoptosis and the use thereof” (Cytovia, Inc., priority 2001, dated 2006) come the findings set out here.

Experiment [1] deals with T-47D. The experiment is described as follows: Caspase cascade activation assay (fluorogenic N-(Ac-DEVD)-N'-ethoxycarbonyl-R110 substrate) in T-47D cells. The experiment is classed as cell-based, Human. Conditions: 48 h incubation; for Caspase Activity Ratio: ratio of net RFU of compound to control; for EC50: Homo sapiens, T47D, read-out: Caspase Potency EC50. As to the method: Human breast cancer cell lines T-47D and ZR-75-1 were grown according to media component mixtures designated by American Type Culture Collection +10% FCS (Invitrogen Corporation), in a 5% CO2—95% humidity incubator at 37° C. T-47D and ZR-75-1 cells were maintained at a cell density between 50 and 80% confluency at a cell density of 0.1 to 0.6×10^6 cells/mL. Cells were harvested at 600×g and resuspended at 0.65×10^6 cells/mL into appropriate media +10% FCS. An aliquot of […] of cells was added to a well of a […] microtiter plate containing 2.5 μl of a 10% DMSO in RPMI-1640 media solution containing 0.16 to 100 μM of 5-(3-chloro-thiophen-2-yl)-3-(4-trifluoromethyl-phenyl)-[1,2,4]-oxadiazole or other test compound (0.016 to 10 μM final). An aliquot of 22.5 μL of cells was added to a well of a […] microtiter plate containing 2.5 μl of a 10% DMSO in RPMI-1640 media solution without test compound as the control sample. The samples were mixed by agitation and then incubated at 37° C. for 48 h in a 5% CO2—95% humidity incubator. After incubation, the samples were removed from the incubator and 25 μL of a solution containing 14 μM of N-(Ac-DEVD)-N′-ethoxycarbonyl-R110 (SEQ ID No.:1) fluorogenic substrate (Maxim, Inc.; WO99/18856), 20% sucrose (Sigma), 20 mM DTT (Sigma), 200 mM NaCl (Sigma), 40 mM Na PIPES buffer pH 7.2 (Sigma), and 500 μg/mL lysolecithin (Calbiochem) was added. The samples were mixed by agitation and incubated at room temperature. Using a fluorescent plate reader (Model SpectraMax Gemini, Molecular Devices), an initial reading (T=0) was made approximately 1-2 min after addition of the substrate solution, employing excitation at 485 nm and emission at 530 nm, to determine the background fluorescence of the control sample. After the 3 h incubation, the samples were read for fluorescence as above (T=3 h).
The Relative Fluorescence Unit values (RFU) were used to calculate the sample readings as follows: RFU(T=3 h)−Control RFU(T=0)=Net RFU(T=3 h)
The activity of caspase cascade activation was determined by the ratio of the net RFU value for 5-(3-chloro-thiophen-2-yl)-3-(4-trifluoromethyl-phenyl)-[1,2,4]-oxadiazole or other test compound to that of control samples. The EC50 (nM) was determined by a sigmoidal dose-response calculation (Prism 2.0, GraphPad Software Inc.).

Experiment [2] relates to T-47D. The experiment is described as follows: Cell proliferation assay (GI50), T-47D. Conditions: Homo sapiens, T47D, 48 h. The experiment is classed as cell-based. As to the method:
(§1) T-47D and SKBr-3 cells were grown and harvested as in Example 121. An aliquot of 90 μL of cells (2. 2×10^4 cells/mL) was added to a well of a 96-well microtiter plate containing 10 μl of a 10% DMSO in RPMI-1640 media solution containing 1 nM to 100 μM of 5-(3-chloro-thiophen-2-yl)-3-(4-trifluoromethyl-phenyl)-[1,2,4]-oxadiazole (0.1 nM to 10 μM final). An aliquot of 90 μL of cells was added to a well of a 96-well microtiter plate containing 10 μL of a 10% DMSO in RPMI-1640 media solution without compound as the control sample for maximal cell proliferation (AMax). The samples were mixed by agitation and then incubated at 37° C. for 48 h in a 5% CO2—95% humidity incubator. After incubation, the samples were removed from the incubator and 20 μL of CellTiter 96 AQUEOUS One Solution Cell Proliferation™ reagent (Promega) was added. The samples were mixed by agitation and incubated at 37° C. for 2-4 h in a 5% CO2—95% humidity incubator. Using an absorbance plate reader (Model 1420 Wallac Instruments), an initial reading (T=0) was made approximately 1-2 min after addition of the solution, employing absorbance at 490 nm. This determines the possible background absorbance of the test compounds. No absorbance for 5-(3-chloro-thiophen-2-yl)-3-(4-trifluoromethyl-phenyl)-[1,2,4]-oxadiazole was found at 490 nm. After the 2-4 h incubation, the samples were read for absorbance as above (ATest). […]

The test system of experiment [3] is ZR-75-1. The experiment is described as follows: Cell proliferation assay (GI50), ZR-75-1. The format is cell-based. The note with it: Homo sapiens, ZR75-1, 48 h. As to the method: [The source words this procedure for another cell line and reports this cell line under the same test.] as §1
Experiment [4] relates to MX-1. Put plainly: Cell proliferation assay (GI50), MX-1. The experiment is classed as cell-based. The note with it: Homo sapiens, MX1; MX-1, breast cancer cell line, 48 h. As to the method:
[The source words this procedure for another cell line and reports this cell line under the same test.] as §1

For experiment [5], the system named is SK-Br-3. The experiment is described as follows: Cell proliferation assay (GI50), SK-Br-3. The note with it: Homo sapiens; SK-Br-3, breast cancer cell line, 48 h. The format is cell-based. As to the method: as §1
Experiment [6] has as its system PC-3. Put plainly: Cell proliferation assay (GI50), PC-3. The experiment is classed as cell-based. The note with it: Homo sapiens; PC-3, non-breast cancer cell line, 48 h. As for the experimental part: [The source words this procedure for another cell line and reports this cell line under the same test.] as §1
Experiment [7] relates to Panc-1. The experiment is described as follows: Cell proliferation assay (GI50), Panc-1. Conditions: Homo sapiens; Panc-1, non-breast cancer cell line, 48 h. The experiment is classed as cell-based. As for the experimental part:
[The source words this procedure for another cell line and reports this cell line under the same test.] as §1

In experiment [8] the test system is SW-620. Put plainly: Cell proliferation assay (GI50), SW-620. The format is cell-based. Conditions: Homo sapiens; SW-620, non-breast cancer cell line, 48 h.
For experiment [9], the system named is NCI-H23. Put plainly: Cell proliferation assay (GI50), NCI-H23. The format is cell-based. The note with it: Homo sapiens; NCI-H23, non-breast cancer cell line, 48 h. As for the experimental part:
[The source words this procedure for another cell line and reports this cell line under the same test.] as §1

The subject of experiment [10] is K562. Put plainly: Cell proliferation assay (GI50), K562. Conditions: Homo sapiens; K562, non-breast cancer cell line, 48 h. The experiment is classed as cell-based. As to the method: [The source words this procedure for another cell line and reports this cell line under the same test.] as §1
Experiment [11] concerns DLD-1. The experiment is described as follows: Cell proliferation assay (GI50), DLD-1. The experiment is classed as cell-based. Conditions: Homo sapiens; DLD-1, colon cancer cell line, 48 h.
In experiment [12] the test system is MX-1 cells. The experiment is described as follows: Clonogenic survival of MX-1 solid tumor cells. The format is cell-based. Conditions: Homo sapiens, MX1, 48 h treatment, colonies counted after 7-10 days, read-out: IC50 of colony forming ability (clonogenic survival). As for the experimental part: MX-1 cells were grown according to the conditions recommended by American Type Culture Collection. In a well of a 96 well plate, 30,000 cells were seeded and treated with compound at the indicated concentrations for 48 h in a 5% CO2—95% humidity incubator at 37° C. Control wells were treated with the same amount of solvent (DMSO) as the compound samples. After the indicated treatment time, the supernatant was removed to a sterile culture tube and the wells washed with phosphate buffered saline, and the adherent cells trypsinized for 5 min. The trypsinzed cells were added to the culture supernatant, cells were collected (1,200 rpm, 10 min), washed with phosphate buffered saline, and resupended in fresh media. The cells were counted for trypan blue negative cells, and the cells diluted with fresh media to 1,000 cells/mL. To a well of a 24-well plate, 0.1 mL of the cell suspension was added along with 1 mL of fresh media (cell suspensions were passed through a 22G needle several times just before plating to form single cell suspensions). Plates are incubated in a 5% CO2—95% humidity incubator at 37° C. for 7-10 days. Colonies are counted when the sizes reached greater than 50 cells per colony. […] Colonies are rinsed with water and the colonies counted and the fraction surviving expressed as the percentage of the number of control colonies.

As for `Clc1ccc(-c2noc(-c3sccc3Cl)n2)cc1` [Example 1, 3-(4-Chloro-phenyl)-5-(3-chloro-thiophen-2-yl)-[1,2,4]-oxadiazole], the “Caspase Activity Ratio” value in [1] came to 16.9. The EC50 (commonly the concentration that produces a half-maximal response) in experiment [1] came out at 3.61 µM. The GI50 (in general, the concentration giving 50% growth inhibition) in [2] was 250 nM; in [3] it was 200 nM; in experiment [4], 300 nM; in experiment [5], 20 nM; in [6] it was over 10 µM; in experiment [7] it was over 10 µM. Besides, the GI50 in experiment [8] was over 10 µM; in experiment [9], over 10 µM; in experiment [10], over 10 µM; in experiment [11] it was 35 nM.
Take `FC(F)(F)c1ccc(-c2noc(-c3sccc3Cl)n2)cc1` [Example 4, 5-(3-Chloro-thiophen-2-yl)-3-(4-trifluoromethyl-phenyl)-[1,2,4]-oxadiazole]: in experiment [1], the “Caspase Activity Ratio” value amounted to 4.2 and the EC50 was found to be 5.35 µM. The IC50 (commonly the concentration at which inhibition is half-maximal) in [12] was about 1050 nM.
`Fc1ccc(-c2noc(-c3sccc3Cl)n2)cc1` [Example 5, 5-(3-Chloro-thiophen-2-yl)-3-(4-fluoro-phenyl)-[1,2,4]-oxadiazole]: the “Caspase Activity Ratio” value in experiment [1] is 19.7. Besides, the EC50 in experiment [1] stood at 2.15 µM. For the same molecule, the GI50 in [2] is 300 nM; in experiment [3] it was 400 nM; in experiment [4] it was 400 nM; in experiment [5], 20 nM; in experiment [6], over 10 µM; in experiment [7] it was over 10 µM. For the same molecule, the GI50 is over 10 µM in experiment [8], over 10 µM in [9], over 10 µM in experiment [10] and 40 nM in experiment [11].
For the molecule `O=[N+]([O-])c1ccc(-c2noc(-c3sccc3Cl)n2)cc1` [Example 6, 5-(3-Chloro-thiophen-2-yl)-3-(4-nitro-phenyl)-[1,2,4]-oxadiazole], in [1], the “Caspase Activity Ratio” value came out at 3.8 and the EC50 was found to be 5 µM.
For `Clc1ccc(-c2noc(-c3sccc3Cl)n2)c(Cl)c1` [Example 7, 5-(3-Chloro-thiophen-2-yl)-3-(2,4-dichloro-phenyl)-[1,2,4]-oxadiazole], in experiment [1], the “Caspase Activity Ratio” value was found to be 4.1 and the EC50 was determined as 0.865 µM.
